Measurements published in patent US10670605B2, “Cysteine reactive probes and uses thereof” (The Scripps Research Institute, priority 2015, dated 2020).
Counter-ions that a name gives are not always drawn. Values belong to the compound of their own block, whether it stands above or below them.

Legend:
[1] = system: splenic T cells from C57BL/6 mice; experiment: Activation of primary mouse T cells (CD25, CD69); assay type: cell-based; settings: C57BL/6, 8 h
Method: Spleens were harvested from female mice, perfused with collagenase, and incubated at 37° C. with 5% CO2 for 30 min. After this time, the spleens were homogenized. Cells that passed through a 100 μm cell strainer were collected and washed with RPMI. T cells were isolated from the splenocytes using the EasySepTM Mouse T cell Isolation Kit (19851; […]) according to manufacturer's instructions. 96-well plates were coated with anti-CD3 (1:200; BioXcell) and anti-CD28 (1:500; 302933; BioLegend) in PBS (100 μL/well) overnight at 4° C. The plates were then washed twice with PBS and to each well was added 500,000 primary T cells in 100 μL of RPMI supplemented with 10% FBS, glutamine, and Pen-Strep. Cells were then treated with 100 μL of media containing compound at the indicated concentrations (final well volume of 200 μL). Cells were left at 37° C. in a 5% CO2 incubator for the indicated periods of time and harvested by centrifugation (500 g, 8 min, 4° C.), followed by washing with PBS. […] Data was then analyzed with FlowJo software (Treestar Inc.). […]

[2] = molecular target: RNF214 C655 (Q8ND24) (Homo sapiens, UniProt Q8ND24); experiment: Competitive isoTOP-ABPP in situ; assay type: cell-based; settings: fragment 2 at 200 μM, MDA-MB-231 cells
RNF214 C655 (Q8ND24), sequence (Q8ND24 whole entry, the tested form may be a part): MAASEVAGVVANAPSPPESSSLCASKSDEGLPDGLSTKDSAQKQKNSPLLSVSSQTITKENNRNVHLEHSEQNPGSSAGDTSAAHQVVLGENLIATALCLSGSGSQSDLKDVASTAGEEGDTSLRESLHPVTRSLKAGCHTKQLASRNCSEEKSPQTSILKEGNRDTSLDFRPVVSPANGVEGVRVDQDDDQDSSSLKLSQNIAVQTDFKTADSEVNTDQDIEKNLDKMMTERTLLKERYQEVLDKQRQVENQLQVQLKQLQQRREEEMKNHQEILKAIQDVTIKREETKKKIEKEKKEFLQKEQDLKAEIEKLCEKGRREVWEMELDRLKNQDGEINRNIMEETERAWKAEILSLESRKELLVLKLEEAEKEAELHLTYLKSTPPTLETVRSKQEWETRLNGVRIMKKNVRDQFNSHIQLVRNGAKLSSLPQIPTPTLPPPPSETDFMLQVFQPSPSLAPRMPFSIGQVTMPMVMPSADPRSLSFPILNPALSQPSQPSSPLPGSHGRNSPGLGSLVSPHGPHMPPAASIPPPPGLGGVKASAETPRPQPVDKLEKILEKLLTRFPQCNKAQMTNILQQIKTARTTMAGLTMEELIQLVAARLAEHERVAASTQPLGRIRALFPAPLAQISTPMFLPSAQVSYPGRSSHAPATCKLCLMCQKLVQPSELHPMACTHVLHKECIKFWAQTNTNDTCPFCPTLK

[3] = molecular target: T1, KDM4B C694 (O94953) (Homo sapiens, UniProt O94953); experiment: Competitive isoTOP-ABPP in situ; assay type: cell-based; settings: fragment 2 at 200 μM, MDA-MB-231 cells
T1 sequence (O94953 1-1096): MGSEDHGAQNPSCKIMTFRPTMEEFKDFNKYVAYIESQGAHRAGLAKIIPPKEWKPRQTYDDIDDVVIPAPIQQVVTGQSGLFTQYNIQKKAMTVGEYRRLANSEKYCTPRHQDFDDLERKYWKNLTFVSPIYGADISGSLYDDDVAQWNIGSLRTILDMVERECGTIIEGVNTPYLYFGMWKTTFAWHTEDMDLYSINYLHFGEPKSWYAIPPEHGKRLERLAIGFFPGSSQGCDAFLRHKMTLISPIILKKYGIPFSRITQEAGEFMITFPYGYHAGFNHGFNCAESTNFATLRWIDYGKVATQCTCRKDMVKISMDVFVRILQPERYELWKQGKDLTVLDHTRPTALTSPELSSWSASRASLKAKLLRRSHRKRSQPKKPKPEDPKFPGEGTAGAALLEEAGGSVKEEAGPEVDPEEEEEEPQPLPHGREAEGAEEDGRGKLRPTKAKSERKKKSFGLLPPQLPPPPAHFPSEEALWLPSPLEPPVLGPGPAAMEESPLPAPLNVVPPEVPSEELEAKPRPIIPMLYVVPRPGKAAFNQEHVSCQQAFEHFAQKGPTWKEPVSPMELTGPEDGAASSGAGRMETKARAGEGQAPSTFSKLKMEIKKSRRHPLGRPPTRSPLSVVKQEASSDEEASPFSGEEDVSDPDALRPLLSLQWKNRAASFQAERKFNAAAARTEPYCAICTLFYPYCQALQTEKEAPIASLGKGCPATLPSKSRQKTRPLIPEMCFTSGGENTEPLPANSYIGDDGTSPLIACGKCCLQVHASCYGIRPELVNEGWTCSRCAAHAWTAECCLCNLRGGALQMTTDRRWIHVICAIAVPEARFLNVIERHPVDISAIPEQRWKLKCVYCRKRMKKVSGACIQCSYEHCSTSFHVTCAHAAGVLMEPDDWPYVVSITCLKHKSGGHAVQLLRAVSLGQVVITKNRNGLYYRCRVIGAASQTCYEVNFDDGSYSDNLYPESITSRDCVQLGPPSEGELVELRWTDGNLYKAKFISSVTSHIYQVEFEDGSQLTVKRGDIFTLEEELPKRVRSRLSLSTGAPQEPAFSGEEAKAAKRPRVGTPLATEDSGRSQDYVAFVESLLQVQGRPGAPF

[4] = molecular target: T2, PRMT1 (Homo sapiens, UniProt Q99873); experiment: PRMT1 in vitro methylation assay (histone 4, 3H-SAM); assay type: biochemical; settings: pre-treatment with fragment 1 h
T2 construct: Full length PRMT1 subcloned into pET45b (+) (Novagen) was previously generated by the Cravatt lab; inferred from Ni-NTA purification and the pET45b vector; made in house; host or cells: E. coli BL21(DE3)
T2 sequence (Q99873 11-371 limits assumed): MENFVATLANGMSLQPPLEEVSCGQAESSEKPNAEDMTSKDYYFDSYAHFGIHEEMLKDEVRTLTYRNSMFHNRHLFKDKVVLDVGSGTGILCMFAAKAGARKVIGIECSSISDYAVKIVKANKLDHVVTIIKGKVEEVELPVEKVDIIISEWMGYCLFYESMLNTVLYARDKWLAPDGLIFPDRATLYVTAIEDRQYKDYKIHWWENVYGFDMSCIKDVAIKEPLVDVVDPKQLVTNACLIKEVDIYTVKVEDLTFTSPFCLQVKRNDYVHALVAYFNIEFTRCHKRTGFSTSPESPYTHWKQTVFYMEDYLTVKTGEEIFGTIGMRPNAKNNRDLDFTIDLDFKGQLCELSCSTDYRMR
Method: PRMT1 assays were conducted as described in Weerapana et al. Nature 468:790-795 (2010). Recombinant human PRMT1 (0.85 μM, wild type or C101S mutant) in 25 μL methylation buffer (20 mM Tris, pH 8.0, 200 mM NaCl, 0.4 mM EDTA) was pre-incubated with indicated fragments for 1 h and methylation activity was monitored after addition of […] of recombinant histone 4 (NEB, M2504S) and ^3H-SAM (2 μCi). Reactions were further incubated for 60 min at ambient temperature and stopped with 4×SDS sample buffer. SDS-PAGE gels were fixed with 10% acetic acid/10% methanol (v/v), washed, and incubated with Amplify reagent (Amersham) before exposing to film at −80° C. for 3 days.

[5] = molecular target: O00541_C272 (Homo sapiens, UniProt O00541); experiment: Competitive isoTOP-ABPP, cell lysates; assay type: binding; settings: 500 μm, in-vitro_ramos
O00541_C272, sequence (O00541 whole entry, looked up): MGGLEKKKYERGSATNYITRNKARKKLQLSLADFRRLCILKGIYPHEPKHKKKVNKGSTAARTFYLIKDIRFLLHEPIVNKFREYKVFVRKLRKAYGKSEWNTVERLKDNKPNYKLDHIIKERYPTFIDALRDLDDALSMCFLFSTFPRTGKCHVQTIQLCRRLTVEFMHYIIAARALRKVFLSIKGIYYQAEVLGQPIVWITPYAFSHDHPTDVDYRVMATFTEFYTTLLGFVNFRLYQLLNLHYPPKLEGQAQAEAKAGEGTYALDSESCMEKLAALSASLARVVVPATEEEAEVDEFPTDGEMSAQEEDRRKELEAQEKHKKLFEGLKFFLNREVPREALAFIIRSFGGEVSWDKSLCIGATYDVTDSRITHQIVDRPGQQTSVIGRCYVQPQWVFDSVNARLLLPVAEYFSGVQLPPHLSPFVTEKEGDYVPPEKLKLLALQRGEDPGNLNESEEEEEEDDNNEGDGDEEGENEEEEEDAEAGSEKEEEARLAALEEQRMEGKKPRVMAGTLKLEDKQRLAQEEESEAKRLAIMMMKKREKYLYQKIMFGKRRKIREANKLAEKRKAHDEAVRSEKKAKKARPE

Structure (SMILES): COC(=O)/C=C/C(=O)OC [DMF, dimethyl fumarate]
activation of primary mouse splenic T cells [1]: suppressed

isoTOP-ABPP reactivity profile (ratio) 2_200 μM_in-situ_231 [2]: 6.5
isoTOP-ABPP reactivity profile (ratio) 2_200 μM_in-situ_231 [3]: 20.0
Structure (SMILES): COc1ccc2c(c1)CCCN2C(=O)CCl [compound 2]

PRMT1-catalyzed methylation of histone 4 [4]: inhibited
Structure (SMILES): Cn1cc(S(=O)(=O)N2CCOCC2)cc1C(=O)NC(=O)CCl [compound 11]

isoTOP-ABPP reactivity profile ratio, O00541_C272 [5]: 0.9
Structure (SMILES): N#CC(=Cc1ccc(-c2ccccc2Cl)o1)C(N)=O [compound 42]
